The supplement of paper PMC7224384

Key:
MDA-MB-453 [1] = experiment: drug sensitivity score (DSS), in combination with BLU9931 (DSS (weighted AUC score)); higher = more sensitive (stronger viability decrease); extreme values may be limits of the assay; conditions: BLU9931 100 nM; 72 h
Method in brief: (§1)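 Each 384-well plate held compounds from the FIMM Oncology set, predispensed in singlicate at five 10-fold dilutions spanning a 10,000-fold range, and each well then received 2000 MDA-MB-453 cells in medium with or without an FGFR4 inhibitor at 100 nM final. Plates stayed at 37 °C, 5% CO2 for 72 h, after which cellular ATP was measured with CellTiterGlo 2.0. Readings were converted per plate into percent viability against control wells, and the drug sensitivity score was taken as a weighted area under a four-parameter logistic fit.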

MDA-MB-453 [2] = experiment: drug sensitivity score (DSS), single agent (DSS (weighted AUC score)); higher = more sensitive (stronger viability decrease); extreme values may be limits of the assay; conditions: BLU9931 0 nM; 72 h
Method in brief: as §1

Row | Structure (SMILES) | drug sensitivity score (MDA-MB-453 [1]) | drug sensitivity score (MDA-MB-453 [2])
1 | COc1nc(N)nc2c1ncn2[C@@H]1O[C@H](CO)[C@@H](O)[C@@H]1O [Nelarabine] | 1.5 | 1.3
2 | CN(C)Cc1ccc(S(=O)(=O)n2ccc(/C=C/C(=O)NO)c2)cc1 [Resminostat] | 16.2 | 16
3 | CC#CC(=O)N1CCC[C@H]1c1nc(-c2ccc(C(=O)Nc3ccccn3)cc2)c2c(N)nccn12 [Acalabrutinib] | 2.4 | 4.2
4 | CN(C(=O)c1ccc(F)cc1C(F)(F)F)C1CCN(c2nnc(-c3ccnn3C)c3ccccc23)CC1 [Taladegib] | 1.1 | 1.6
5 | C=CC(=O)Nc1cccc(Oc2nc(Nc3ccc(N4CCN(C)CC4)cc3)nc3ccsc23)c1 [Olmutinib] | 0.7 | 0.7
6 | CNC(=O)c1ccc(C)c(-n2c(C)cc(OCc3ccc(F)cc3F)c(Br)c2=O)c1 | 0 | 0.1
7 | CNC(=O)c1cc(COc2nnc(Nc3ccc(Cl)cc3)c3ccoc23)ccn1 [Telatinib] | 0 | 1.2
